Assay results published in publication PMC11571207, “Stereorandomized Oncocins with Preserved Ribosome Binding and Antibacterial Activity” (Journal of Medicinal Chemistry, 2024).
Values after ≈ are worked out from the molar mass of the structure shown. Non-standard residues stand in square brackets, D forms with d. Residues, ends and D or L forms follow the SMILES beside them. No end group written: not given here.

What was measured:
K. pneumoniae NCTC 418 = experiment: microbe, parasite or virus in culture; details: for MIC K. pneumoniae, 12.5% MHB / MIC K. pneumoniae, Full MHB: K. pneumoniae NCTC 418, 16–20 h at 37 °C; for MIC K. pneumoniae, 12.5% MHB: 12.5% Müller–Hinton medium; for MIC K. pneumoniae, Full MHB: full Müller–Hinton medium; for MIC K. pneumoniae NCTC418: supplement CSV
Excerpt: (§1) We tested antibacterial effects against the Gram-negative bacteria Escherichia coli, Klebsiella pneumoniae, Pseudomonas aeruginosa, and Acinetobacter baumannii and the Gram-positive methicillin-resistant Staphylococcus aureus (MRSA).
(§2) Bacterial growth assay (Figure S1), transmission electron microscopy (Figure S6), serum stability assay (Figure S7), circular dichroism spectral recording (Figures S8 and S9), antimicrobial and hemolysis activity assays (MIC and MHC), and vesicle leakage assay were carried out as described in earlier publications.[43],[44]
(§3) Minimum inhibitory concentration assay
(§4) Antimicrobial activity was assayed against P. aeruginosa PAO1, K. pneumoniae NCTC418, E. coli W3110, A. baumannii ATCC 19606, methicillin-resistant S. aureus COL (MRSA), and for selected peptides on P. aeruginosa PA14 and the polymyxin-B-resistant derivative PA14 2P4, as well as the clinical isolates ZEM-1A and ZEM9A, K. pneumoniae OXA-48, S. aureus Newman, Enterobacter cloacae and Burkholderia cenocepacia. The minimal inhibitory concentration (MIC) was determined by using broth microdilution method. A colo ny of bacteria was picked and grown in Luria-Bertani (LB) medium overnight at 37°C. For E. coli BW25113 sbmA::kan the medium was supplemented with 25 mg/L of kanamycin. The next day, the culture was then regrown in LB medium to log phase (OD600 = 0.6 to 0.8), which lasted approximately 4 h, and diluted to an OD600 of 0.022 in the desired medium. Stock solutions of 1 mg/mL of the samples were prepared in sterilized milliQ water and diluted to the beginning concentration of 64 μg/mL in 300 μL Mueller Hinton (MH)-medium. The diluted samples were added to first well of 96-well microtiter plate (TPP, untreated, Faust Laborbedarf, AG, Schaffhausen) and diluted serially by ½. Finally, 4 μL of the bacterial suspension was inoculated into the sample solutions (150 μL/well) with a final inoculation of about 5∙10^5 CFU/mL. The plates were then incubated at 37°C for 15-18h. For each assay, sterility (broth only) and growth control (broth with bacterial inoculum, without antibiotics) were checked with two columns in the plate. The next day, 15 μL of 3-(4,5-dimethylthiazol-2-yl)-2,5-diphenyltetrazolium bromide (MTT) was added to each well of the plate, such a way that MIC was defined as the lowest concentration of the peptide that inhibited visible growth of the tested

A. baumannii ATCC19606 = experiment: microbe, parasite or virus in culture; details: for MIC A. baumannii, 12.5% MHB / MIC A. baumannii, Full MHB: A. baumannii ATCC19606, 16–20 h at 37 °C; for MIC A. baumannii, 12.5% MHB: 12.5% Müller–Hinton medium; for MIC A. baumannii, Full MHB: full Müller–Hinton medium; for MIC A. baumannii ATCC19606: supplement CSV
Excerpt: as §1, §2, §3, §4

S. aureus COL (MRSA) = experiment: microbe, parasite or virus in culture; details: for MIC S. aureus, 12.5% MHB / MIC S. aureus, Full MHB: S. aureus COL (MRSA), 16–20 h at 37 °C; for MIC S. aureus, 12.5% MHB: 12.5% Müller–Hinton medium; for MIC S. aureus, Full MHB: full Müller–Hinton medium; for MIC S. aureus COL (MRSA): supplement CSV
Excerpt: as §1, §2, §3, §4

P. aeruginosa PAO1 = experiment: microbe, parasite or virus in culture; details: for MIC P. aeruginosa, 12.5% MHB / MIC P. aeruginosa, Full MHB: P. aeruginosa PAO1, 16–20 h at 37 °C; for MIC P. aeruginosa, 12.5% MHB: 12.5% Müller–Hinton medium; for MIC P. aeruginosa, Full MHB: full Müller–Hinton medium; for MIC P. aeruginosa PAO1: supplement CSV
Excerpt: as §1, §2, §3, §4

E. coli W3110 = experiment: microbe, parasite or virus in culture; details: for MIC E. coli, 12.5% MHB / MIC E. coli, Full MHB: E. coli W3110, 16–20 h at 37 °C, broth microdilution; for MIC E. coli, 12.5% MHB: 12.5% Müller–Hinton medium; for MIC E. coli, Full MHB: full Müller–Hinton medium; for MIC E. coli W3110: supplement CSV
Excerpt: as §1, §2, §3, §4

human red blood cells = experiment: Hemolysis assay, minimum hemolytic concentration; details: for Haemolysis on hRBC, MHC: 2.5% human red blood cells (final) in 10 mM phosphate, 150 mM NaCl, pH 7.4, 25 °C, 4 h, visual inspection; for MHC human red blood cells: supplement CSV

Row | Compound | MIC K. pneumoniae, 12.5% MHB (K. pneumoniae NCTC 418) [µg/mL] | MIC K. pneumoniae, Full MHB (K. pneumoniae NCTC 418) [µg/mL] | MIC K. pneumoniae NCTC418 (K. pneumoniae NCTC 418; 12.5% MH pH 7.4) [µg/mL] | MIC K. pneumoniae NCTC418 (K. pneumoniae NCTC 418; full MH pH 7.4) [µg/mL] | MIC A. baumannii, 12.5% MHB (A. baumannii ATCC19606) [µg/mL] | MIC A. baumannii, Full MHB (A. baumannii ATCC19606) [µg/mL] | MIC A. baumannii ATCC19606 (A. baumannii ATCC19606; 12.5% MH pH 7.4) [µg/mL] | MIC A. baumannii ATCC19606 (A. baumannii ATCC19606; full MH pH 7.4) [µg/mL] | MIC S. aureus, 12.5% MHB (S. aureus COL (MRSA)) | MIC S. aureus, Full MHB (S. aureus COL (MRSA)) | MIC S. aureus COL (MRSA) (S. aureus COL (MRSA); 12.5% MH pH 7.4) [µg/mL] | MIC S. aureus COL (MRSA) (S. aureus COL (MRSA); full MH pH 7.4) [µg/mL] | MIC P. aeruginosa, 12.5% MHB (P. aeruginosa PAO1) [µg/mL] | MIC P. aeruginosa, Full MHB (P. aeruginosa PAO1) [µg/mL] | MIC P. aeruginosa PAO1 (P. aeruginosa PAO1; 12.5% MH pH 7.4) [µg/mL] | MIC P. aeruginosa PAO1 (P. aeruginosa PAO1; full MH pH 7.4) [µg/mL] | MIC E. coli, 12.5% MHB (E. coli W3110) [µg/mL] | MIC E. coli, Full MHB (E. coli W3110) [µg/mL] | MIC E. coli W3110 (E. coli W3110; 12.5% MH pH 7.4) [µg/mL] | MIC E. coli W3110 (E. coli W3110; full MH pH 7.4) [µg/mL] | also measured
1 | CC[C@H](C)[C@H](NC(=O)[C@H](CCCNC(=N)N)NC(=O)[C@H](CCCNC(=N)N)NC(=O)[C@@H]1CCCN1C(=O)[C@@H]1CCCN1C(=O)[C@H](CCCNC(=N)N)NC(=O)[C@@H]1CCCN1C(=O)[C@H](CCCNC(=N)N)NC(=O)[C@@H]1CCCN1C(=O)[C@H](CC(C)C)NC(=O)[C@H](Cc1ccc(O)cc1)NC(=O)[C@@H]1CCCN1C(=O)[C@H]1CCCN1C(=O)[C@H](CCCCN)NC(=O)[C@H](CC(=O)O)NC(=O)[C@@H](N)C(C)C)C(=O)N[C@@H](Cc1ccc(O)cc1)C(=O)N[C@@H](CC(N)=O)C(=O)N[C@@H](CCCNC(=N)N)C(N)=O [DP4-Onc] (H-VDK[dP]PYLPRPRPPRRIYNR-NH2) | 4 (≈ 1.67 µM) | 32 (≈ 13.4 µM) | 4 (≈ 1.67 µM) | 32 (≈ 13.4 µM) | 8 (≈ 3.35 µM) | 64 (≈ 26.8 µM) | 8 (≈ 3.35 µM) | 64 (≈ 26.8 µM) | >64 / 64 μg/mL | >64 / 64 μg/mL | 64 (≈ 26.8 µM) | >64 | > 16 | > 64 | >16 | >64 | 4 (≈ 1.67 µM) | 16 (≈ 6.69 µM) | 4 (≈ 1.67 µM) | 16 (≈ 6.69 µM) | Haemolysis on hRBC, MHC (human red blood cells): >1000 µg/mL; MHC human red blood cells (human red blood cells): >1000 µg/mL
2 | CC[C@H](C)[C@H](NC(=O)[C@H](CCCNC(=N)N)NC(=O)[C@H](CCCNC(=N)N)NC(=O)[C@@H]1CCCN1C(=O)[C@H]1CCCN1C(=O)[C@H](CCCNC(=N)N)NC(=O)[C@@H]1CCCN1C(=O)[C@H](CCCNC(=N)N)NC(=O)[C@@H]1CCCN1C(=O)[C@H](CC(C)C)NC(=O)[C@H](Cc1ccc(O)cc1)NC(=O)[C@@H]1CCCN1C(=O)[C@@H]1CCCN1C(=O)[C@H](CCCCN)NC(=O)[C@H](CC(=O)O)NC(=O)[C@@H](N)C(C)C)C(=O)N[C@@H](Cc1ccc(O)cc1)C(=O)N[C@@H](CC(N)=O)C(=O)N[C@@H](CCCNC(=N)N)C(N)=O [DP12-Onc] (H-VDKPPYLPRPR[dP]PRRIYNR-NH2) | 4 (≈ 1.67 µM) | 16 (≈ 6.69 µM) | 4 (≈ 1.67 µM) | 16 (≈ 6.69 µM) | 8 (≈ 3.35 µM) | 16 (≈ 6.69 µM) | 8 (≈ 3.35 µM) | 16 (≈ 6.69 µM) | >64 / 64 μg/mL | >64 / 64 μg/mL | 64 (≈ 26.8 µM) | >64 | 16 (≈ 6.69 µM) | > 64 | 16 (≈ 6.69 µM) | >64 | 2 (≈ 0.837 µM) | 8 (≈ 3.35 µM) | 2 (≈ 0.837 µM) | 8 (≈ 3.35 µM) | Haemolysis on hRBC, MHC (human red blood cells): >1000 µg/mL; MHC human red blood cells (human red blood cells): >1000 µg/mL
3 | CC[C@H](C)[C@H](NC(=O)[C@H](CCCNC(=N)N)NC(=O)[C@H](CCCNC(=N)N)NC(=O)[C@@H]1CCCN1C(=O)[C@@H]1CCCN1C(=O)[C@H](CCCNC(=N)N)NC(=O)[C@@H]1CCCN1C(=O)[C@H](CCCNC(=N)N)NC(=O)[C@@H]1CCCN1C(=O)[C@H](CC(C)C)NC(=O)[C@H](Cc1ccc(O)cc1)NC(=O)[C@H]1CCCN1C(=O)[C@@H]1CCCN1C(=O)[C@H](CCCCN)NC(=O)[C@H](CC(=O)O)NC(=O)[C@@H](N)C(C)C)C(=O)N[C@@H](Cc1ccc(O)cc1)C(=O)N[C@@H](CC(N)=O)C(=O)N[C@@H](CCCNC(=N)N)C(N)=O [DP5-Onc] (H-VDKP[dP]YLPRPRPPRRIYNR-NH2) | > 16 | > 64 | >16 | >64 | 16 (≈ 6.69 µM) | > 64 | 16 (≈ 6.69 µM) | >64 | >64 / 64 μg/mL | >64 / 64 μg/mL | 64 (≈ 26.8 µM) | >64 | > 16 | > 64 | >16 | >64 | 4 (≈ 1.67 µM) | 32 (≈ 13.4 µM) | 4 (≈ 1.67 µM) | 32 (≈ 13.4 µM) | Haemolysis on hRBC, MHC (human red blood cells): >1000 µg/mL; MHC human red blood cells (human red blood cells): >1000 µg/mL
4 | VDKPPYLPRPRPPRRIYNR [sr12Cterm-Onc] (VDKPPYLPRPRPPRRIYNR-NH2; also: residues 8-19 stereorandomized (1:1 L/D mixture)) | 8 | 16 | 8 | 16 | 8 | 32 | 8 | 32 | >64 / 64 μg/mL | >64 / 64 μg/mL | 64 | >64 | 8 | > 64 | 8 | >64 | 8 | 16 | 8 | 16 | Haemolysis on hRBC, MHC (human red blood cells): >1000 µg/mL; MHC human red blood cells (human red blood cells): >1000 µg/mL
